Test results from patent US10544103B2, “5-HT2 antagonists” (ANAMAR AB, priority 2015, dated 2020).

Target: T1, 5-HT2B receptor (Homo sapiens, UniProt P41595)
T1 construct: host or cells: CHO-K1
Test: 5-HT2B receptor binding, 3H-LSD ligand displacement assay
Details: for inhibition at 0.001 µM: 0.001 uM compound; for inhibition at 0.01 µM: 0.01 uM compound; for inhibition at 0.1 µM: 0.1 uM compound; for inhibition at 1 µM: 1 uM compound; for inhibition at 10 µM: 10 uM compound
Procedure: 5-HT2B receptor binding (performed at Eurofins Panlabs Taiwan, Ltd.) to human receptor protein expressed in CHO-K1 cells was determined in a ligand displacement assay using ^3H-lysergic acid diethylamide (LSD) as radioligand and ketanserine as a standard reference compound. Data is presented as % displacement of radioligand at indicated compound concentrations, see Table 1 and Table 2.

T1 sequence (P41595 whole entry): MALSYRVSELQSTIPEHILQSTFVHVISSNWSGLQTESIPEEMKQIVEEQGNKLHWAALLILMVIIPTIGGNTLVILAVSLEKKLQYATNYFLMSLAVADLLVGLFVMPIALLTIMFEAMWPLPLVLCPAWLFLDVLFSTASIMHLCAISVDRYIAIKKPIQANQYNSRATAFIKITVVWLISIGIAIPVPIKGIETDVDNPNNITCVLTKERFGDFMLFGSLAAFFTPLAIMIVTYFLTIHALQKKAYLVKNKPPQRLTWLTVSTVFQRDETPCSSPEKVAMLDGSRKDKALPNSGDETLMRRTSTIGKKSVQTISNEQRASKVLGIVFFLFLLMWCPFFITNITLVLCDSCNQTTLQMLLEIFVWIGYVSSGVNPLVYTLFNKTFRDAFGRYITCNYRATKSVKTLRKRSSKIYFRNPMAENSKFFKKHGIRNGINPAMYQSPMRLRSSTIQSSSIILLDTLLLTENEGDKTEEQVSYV

Row | Structure (SMILES) | inhibition at 0.001 µM | inhibition at 0.01 µM | inhibition at 0.1 µM | inhibition at 1 µM | inhibition at 10 µM
1 | CC1CN(C(=N)NC2CC2)N=C1c1cccc(Cl)c1O (stereo not drawn) [Example 87, 3-(3-Chloro-2-hydroxyphenyl)-N-cyclopropyl-4-methyl-4,5-dihydro-1H-pyrazole-1-carboximidamide] | 24% | 84% | 100% |  | 
2 | N=C(N)N1CCC(c2coc3ccccc23)=N1 [Example 14, 3-(Benzofuran-3-yl)-4,5-dihydro-1H-pyrazole-1-carboximidamide] |  |  | 40% | 88% | 
3 | COc1c(Cl)cccc1C1=NN(C(=N)Nc2ccccc2)CC1C (stereo not drawn) [Example 88, 3-(3-Chloro-2-methoxyphenyl)-4-methyl-N-phenyl-4,5-dihydro-1H-pyrazole-1-carboximidamide] | 53% | 92% | 97% |  | 
4 | CC1CN(C(=N)N)N=C1c1cccc2ccccc12 (stereo not drawn) [Example 24, 4-Methyl-3-(naphthalen-1-yl)-4,5-dihydro-1H-pyrazole-1-carboximidamide] |  | 39% | 86% | 102% | 
5 | N=C(N)N1CCC(c2ccccc2Cl)=N1 [Example 5, 3-(2-Chlorophenyl)-4,5-dihydro-1H-pyrazole-1-carboximidamide] |  |  |  | 95% | 100%
6 | COc1ccccc1C1=NN(C(=N)Nc2ccc(Cl)cc2)CC1C (stereo not drawn) [Example 102, N-(4-Chlorophenyl)-3-(2-methoxyphenyl)-4-methyl-4,5-dihydro-1H-pyrazole-1-carboximidamide] | 17% | 44% | 92% |  | 
7 | CC(C)c1ccccc1C1=NN(C(=N)N)CC1 [Example 8, 3-(2-Isopropylphenyl)-4,5-dihydro-1H-pyrazole-1-carboximidamide] |  |  | 80% | 95% | 
8 | CC1CN(C(=N)N[C@H](C)c2ccccc2)N=C1c1ccccc1O (stereo partly drawn) [Example 63, 3-(2-Hydroxyphenyl)-4-methyl-N—((R)-1-phenylethyl)-4,5-dihydro-1H-pyrazole-1-carboximidamide] | 36% | 81% |  |  | 
9 | CC1CN(C(=N)N)N=C1c1cc(Cl)ccc1O (stereo not drawn) [Example 52, 3-(5-Chloro-2-hydroxyphenyl)-4-methyl-4,5-dihydro-1H-pyrazole-1-carboximidamide] |  | 34% | 72% | 95% | 
10 | C[C@H]1CN(C(=N)N)N=C1c1ccccc1O (single isomer, unassigned) [Example 37] |  | -1% | 35% | 72% | 99%
11 | COc1ccccc1C1=NN(C(=N)NCC(F)(F)F)CC1C (stereo not drawn) [Example 94, 3-(2-Methoxyphenyl)-4-methyl-N-(2,2,2-trifluoroethyl)-4,5-dihydro-1H-pyrazole-1-carboximidamide] | -12% | 17% | 77% |  | 
12 | COc1ccc(F)cc1C1=NN(C(=N)N)CC1C (stereo not drawn) [Example 45, 3-(5-Fluoro-2-methoxyphenyl)-4-methyl-4,5-dihydro-1H-pyrazole-1-carboximidamide] |  | 26% | 54% | 86% | 
13 | C[C@H]1CN(C(=N)N)N=C1c1cccc(Cl)c1O (single isomer, unassigned) [Example 72, (S)*-3-(3-chloro-2-hydroxyphenyl)-4-methyl-4,5-dihydro-1H-pyrazole-1-carboximidamide] | -1% | 21% | 69% |  | 
14 | COc1c(Cl)cccc1C1=NN(C(=N)Nc2ccc(F)cc2)CC1C (stereo not drawn) [Example 108, 3-(3-Chloro-2-methoxyphenyl)-N-(4-fluorophenyl)-4-methyl-4,5-dihydro-1H-pyrazole-1-carboximidamide] | 29% | 83% | 101% |  | 
15 | CNC(=N)N1CC(C)C(c2ccccc2O)=N1 (stereo not drawn) [Example 40, 3-(2-Hydroxyphenyl)-N,4-dimethyl-4,5-dihydro-1H-pyrazole-1-carboximidamide] | 1% | 42% | 92% | 99% | 
16 | COc1c(Cl)cccc1C1=NN(C(=N)NC2CC2)CC1C (stereo not drawn) [Example 86, 3-(3-Chloro-2-methoxyphenyl)-N-cyclopropyl-4-methyl-4,5-dihydro-1H-pyrazole-1-carboximidamide] | -14% | 29% | 83% |  | 
17 | CC1CC(c2cccc3ccccc23)=NN1C(=N)N (stereo not drawn) [Example 23, 5-methyl-3-(naphthalen-1-yl)-4,5-dihydro-1H-pyrazole-1-carboximidamide] |  |  | 68% | 97% | 
18 | COc1c(Cl)cccc1C1=NN(C(=N)NCC(F)(F)C(F)(F)C(F)(F)F)CC1C (stereo not drawn) [Example 106, 3-(3-Chloro-2-methoxyphenyl)-N-(2,2,3,3,4,4,4-heptafluorobutyl)-4-methyl-4,5-dihydro-1H-pyrazole-1-carboximidamide] | 16% | 57% | 93% |  | 
19 | CCCCCCCCCCCCNC(=N)N1CC(C)C(c2cccc(Cl)c2OC)=N1 (stereo not drawn) [Example 82, 3-(3-Chloro-2-methoxyphenyl)-N-dodecyl-4-methyl-4,5-dihydro-1H-pyrazole-1-carboximidamide] | 0% | -4% | 51% |  | 
20 | CC1CN(C(=N)NC#N)N=C1c1cccc(Cl)c1O (stereo not drawn) [Example 91, 3-(3-Chloro-2-hydroxyphenyl)-N-cyano-4-methyl-4,5-dihydro-1H-pyrazole-1-carboximidamide] | -15% | 27% | 74% |  | 
21 | COc1c(Cl)cccc1C1=NN(C(=N)NC#N)CC1C (stereo not drawn) [Example 90, 3-(3-Chloro-2-methoxyphenyl)-N-cyano-4-methyl-4,5-dihydro-1H-pyrazole-1-carboximidamide] | 3% | 1% | -2% |  | 
22 | N=C(N)N1CCC(c2cc(F)ccc2F)=N1 [Example 7, 3-(2,5-Difluorophenyl)-4,5-dihydro-1H-pyrazole-1-carboximidamide] |  |  |  | 47% | 94%
23 | CC1CN(C(=N)Nc2ccc(C(F)(F)F)cc2)N=C1c1cccc(Cl)c1O (stereo not drawn) [Example 113, 3-(3-Chloro-2-hydroxyphenyl)-4-methyl-N-(4-(trifluoromethyl)phenyl)-4,5-dihydro-1H-pyrazole-1-carboximidamide] | 59% | 95% | 99% |  | 
24 | COc1ccc(CNC(=N)N2CC(C)C(c3ccccc3O)=N2)cc1Cl (stereo not drawn) [Example 62, N-(3-chloro-4-methoxybenzyl)-3-(2-hydroxyphenyl)-4-methyl-4,5-dihydro-1H-pyrazole-1-carboximidamide] | 27% | 72% |  |  | 
25 | COc1ccc(C2=NN(C(=N)N)CC2)cc1 [Example 15, 3-(4-Methoxyphenyl)-4,5-dihydro-1H-pyrazole-1-carboximidamide, reference compound] |  |  |  | 13% | 56%
